Results on 6 molecules are retold here after PMC11039317, “Acidity of persulfides and its modulation by the protein environments in sulfide quinone oxidoreductase and thiosulfate sulfurtransferase” (The Journal of Biological Chemistry, 2024).

Where “and” joins values, the source holds several entries; their conditions need not be identical. Equal entries are not always repeated.

The test system of one series is Cys. The following applies: cited from earlier work.
For another series, the target named is TST persulfide (Homo sapiens, UniProt Q16762).
The conditions of series [1]: reported value; cited from earlier work.
In series [2] the target is T1, Human SQOR (Homo sapiens, UniProt Q9Y6N5).
T1 construct: made in house
The following applies: potassium phosphate, pH 7.4, 4 °C; cited from earlier work.

The target in series [3] is T1, Human SQOR. The class given is biochemical. On the procedure: The acidity of the persulfidated SQOR was evaluated by the pH-dependence of the steady-state rates. For enzymes that catalyze reactions with one substrate, the kinetic parameter kcat/Km (specificity constant) is an apparent second-order rate constant that reports on the properties of the free enzyme and the free substrate ([32]). kcat/Km can be calculated from the kinetic parameters kcat and Km obtained from typical Michaelis–Menten analysis (Equation 1). […]
SQOR uses three substrates: H2S, a sulfur acceptor (Acc^−), and CoQ (Fig. 1A). At saturating concentrations of H2S and CoQ, the kcat/Km^Acc- represents the apparent rate constant for the reaction between the sulfur acceptor and the Cys379SSH of the bis-persulfidated SQOR, and its pH-dependency reports on the pKa of both free species. Although the pH dependence of human SQOR activity has been reported ([25]), the pH dependence of kcat/Km is unavailable. The steady-state rate of SQOR was determined by monitoring the reduction of coenzyme Q1 (CoQ1) at 278 nm at varying pH at 25 °C. […]. Therefore, in the experiments with cyanide, the reactions were started with cyanide instead of SQOR so that the contribution of SQOR with H2S alone could be subtracted.
In experiments with sulfite, steady-state time courses with varying concentrations of sulfite (0.01–8 mM) were recorded, and linear functions were fitted to the first 15 to 40 s following SQOR addition (Fig. 3A). The slope before SQOR addition was subtracted to correct for the background nonenzymatic reduction of CoQ1, which was minimal. From the hyperbolic fit of the activity versus sulfite concentration plot (Fig. 3B), the kinetic parameters kcat^sulfite and Km^sulfite were obtained, and the kcat/Km^sulfite for each pH were calculated. As expected, when the kcat/Km^sulfite were plotted against pH, a bell-shaped profile was obtained (Fig. 3C), consistent with a reaction between a deprotonated species and a protonated one. An equation with two pKa was fitted to the data (Equation 3), assuming that deprotonated sulfite and protonated SQOR persulfide were the reacting species. […]. […]
The steady-state rates were obtained from linear fits to the data during the first 4 to 20 s following cyanide addition, and the slopes before cyanide addition were subtracted. The kcat/Km^cyanide at each pH was calculated according to Equation 2 using the enzyme (50 nM) and cyanide (90 μM) initial concentrations. […]
Human SQOR was expressed and purified as reported previously ([24], [25]). SQOR concentration was determined from the FAD absorbance at 450 nm, using ε = 11,500 M^−1 cm^−1 ([25]). […]
The activity of SQOR was measured at different pHs in a temperature-controlled spectrophotometer (Shimadzu UV-2600 or UV-1900i). […]

Series [4] concerns the target T2, Human TST (Homo sapiens, UniProt Q16762). The following applies: cited from earlier work.
Another series concerns the target Cys248 (UniProt position 248, PLIATCRKGVT). As to the kind of experiment: kinetics. The following applies: 25 °C; I = 0.15 M (120 mM NaCl); acetic/MES/Tris (15 mM acetic acid, 15 mM MES, 30 mM Tris, 120 mM NaCl, 0.1 mM DTPA); TST thiol (sulfur-free) form reacting with thiosulfate, pseudo-first order.
Series [5] relates to human 3-mercaptopyruvate sulfurtransferase. More on the design: method as in earlier work. Conditions: cited from earlier work.
The target of series [6] is T2, Human TST. Conditions: pH 7.03.
Method: The activity of TST was measured at different pH values and 25 °C by the steady-state rate of thiocyanate formation. […] After 30 to 90 s, the reactions were stopped by removing 305 μl aliquots and mixing them with 20 μl of 38% formaldehyde (Biopack) and 25 μl of 140 mM FeCl3·6H2O (Sigma-Aldrich) diluted in 32.5% HNO3 (Dorwil). Absorbances at 460 nm (Varian Cary 60, Agilent) were recorded immediately and interpolated into a 0 to 30 μM thiocyanate calibration curve. The thiocyanate standards were prepared daily in ACES/Tris/ethanolamine buffer, pH 7.8, and underwent the same procedures as the samples ([1]).
After 220 s, 5 μl of 5 M NaOH were added, changing the pH to 8.5. The concentrations of thiocyanate produced at 252 and 310 s were measured as described.

T1 sequence (Q9Y6N5 whole entry): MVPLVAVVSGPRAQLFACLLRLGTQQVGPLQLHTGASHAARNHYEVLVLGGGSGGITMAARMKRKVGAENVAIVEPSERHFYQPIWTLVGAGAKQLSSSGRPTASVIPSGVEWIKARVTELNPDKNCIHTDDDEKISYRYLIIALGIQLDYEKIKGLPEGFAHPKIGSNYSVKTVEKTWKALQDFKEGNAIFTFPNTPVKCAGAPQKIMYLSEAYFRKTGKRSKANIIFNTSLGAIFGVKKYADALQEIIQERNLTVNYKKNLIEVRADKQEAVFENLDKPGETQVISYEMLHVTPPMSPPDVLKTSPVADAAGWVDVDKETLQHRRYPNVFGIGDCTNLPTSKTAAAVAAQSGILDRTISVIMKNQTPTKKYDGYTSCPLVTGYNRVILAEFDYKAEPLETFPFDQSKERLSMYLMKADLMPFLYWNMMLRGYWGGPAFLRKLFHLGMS
T2 sequence (Q16762 whole entry): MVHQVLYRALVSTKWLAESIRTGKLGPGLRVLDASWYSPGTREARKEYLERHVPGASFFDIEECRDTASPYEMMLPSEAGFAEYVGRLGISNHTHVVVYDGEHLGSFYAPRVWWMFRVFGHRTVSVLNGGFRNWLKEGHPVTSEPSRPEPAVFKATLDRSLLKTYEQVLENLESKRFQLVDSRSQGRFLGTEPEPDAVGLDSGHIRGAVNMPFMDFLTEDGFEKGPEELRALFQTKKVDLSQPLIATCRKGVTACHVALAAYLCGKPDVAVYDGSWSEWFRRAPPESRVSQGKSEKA
Sequence of TST persulfide (Q16762 whole entry): as above
Method for TST persulfide: Stopped-flow kinetic studies were performed on the isolated half-reactions between TST persulfide and sulfur acceptors. Preformed stocks of TST persulfide were used to monitor its reaction with sulfite or cyanide at varying pH at 25 °C. The reactions were followed by the changes in the intrinsic fluorescence of TST, taking advantage of the higher fluorescence in the thiol versus the persulfidated state, as reported for the bovine enzyme ([37]).
TST persulfide was exposed to a pseudo-first order excess of sulfite (15 and 75 μM) or cyanide (25 and 100 μM), and the increases in the intrinsic fluorescence were recorded (Fig. 5, A and B). Single exponential functions were fitted to the time courses. The kobs values were divided by the sulfite or cyanide concentration and the second order rate constants, kpH, were determined at each pH.
The persulfidated TST was diluted in ultrapure water in one of the stopped-flow syringes (1.6–2.0 μM, ∼ 2 mM Tris) and mixed with sulfite (30 and 150 μM) or cyanide (50 and 200 μM) prepared in the other syringe in ACES/Tris/ethanolamine buffer 2× in a pH range of 5.60 to 10.38, at 25 °C. The final concentrations were halved as a consequence of the stopped-flow mixing. The increase in intrinsic fluorescence due to thiol formation was recorded during 0.025 to 10 s depending on the time course. The final pH of the reaction mixtures was measured.

For the molecule “3-Mercaptopyruvate sulfurtransferase (MPST) (Homo sapiens)”, the pKa in the series with Cys is recorded as 5.2.
Turning to `O=S(O)O` [sulfite], the “pKa of the deprotonated species (sulfite)” value is listed as 6.89 ± 0.09 on TST persulfide and 6.8 ± 0.5 at Human SQOR [3] (fit of kcat/Km^sulfite of SQOR versus pH, 25 °C). The pKa in series [1] is recorded as 6.91. The “second-order rate constant between the enzyme CT complex and sulfite” value at Human SQOR [2] was 390000 M⁻¹ s⁻¹. In addition, at Human SQOR [3] (acetic/MES/Tris buffer containing 120 mM NaCl, pH 7.17, read-out: apparent Km^sulfite), the Km stood at 2.4 ± 0.2 mM.
For the molecule `O=S(O)(O)=S` [thiosulfate], at Human TST [4] (b33: with 312 μM cyanide), the “thiosulfate concentration causing inhibition of TST” value is 30 mM and > 30 mM. Besides, the Km at Human TST [4] (read-out: Km^thiosulfate) is 18 to 45 mM.
Regarding “Thiosulfate sulfurtransferase (TST, rhodanese), thiol form (Homo sapiens)”, the pKa in the series with Cys248 is listed as 6.5 ± 0.1.

B1: human 3-mercaptopyruvate sulfurtransferase: sulfurtransferase enzyme, literature thiol pKa (protein, UniProt P25325 2-297, looked up)
3-mercaptopyruvate …: ASPQLCRALVSAQWVAEALRAPRAGQPLQLLDASWYLPKLGRDARREFEERHIPGAAFFDIDQCSDRTSPYDHMLPGAEHFAEYAGRLGVGAATHVVIYDASDQGLYSAPRVWWMFRAFGHHAVSLLDGGLRHWLRQNLPLSSGKSQPAPAEFRAQLDPAFIKTYEDIKENLESRRFQVVDSRATGRFRGTEPEPRDGIEPGHIPGTVNIPFTDFLSQEGLEKSPEEIRHLFQEKKVDLSKPLVATCGSGVTACHVALGAYLCGKPDVPIYDGSWVEWYMRARPEDVISEGRGKTH
B1: in [5], the “pKa of the thiol” value is given as 5.2.

B2: TST (protein, UniProt Q16762 2-297, looked up)
Thiosulfate sulfurtransferase: VHQVLYRALVSTKWLAESIRTGKLGPGLRVLDASWYSPGTREARKEYLERHVPGASFFDIEECRDTASPYEMMLPSEAGFAEYVGRLGISNHTHVVVYDGEHLGSFYAPRVWWMFRVFGHRTVSVLNGGFRNWLKEGHPVTSEPSRPEPAVFKATLDRSLLKTYEQVLENLESKRFQLVDSRSQGRFLGTEPEPDAVGLDSGHIRGAVNMPFMDFLTEDGFEKGPEELRALFQTKKVDLSQPLIATCRKGVTACHVALAAYLCGKPDVAVYDGSWSEWFRRAPPESRVSQGKSEKA
Consider B2, for which the “apparent pKa of steady-state activity” value in the series with Human TST [6] was 8.47 ± 0.06.

As usually defined, the pKa is the negative logarithm of the acid dissociation constant. Broadly, the Km is the concentration of substrate that gives half-maximal velocity.
